The numbers were not newly measured in patent publication US20120022114A1, “Low-dose, non-irritating nicotine nasal composition to reduce the desire to smoke” (Laboratorio Pablo Cassara S.R.L., priority 2009, published 2012), which cites them from elsewhere.

For this data set the following is noted: when inhaled; on average.

For `CN1CCCC1c1cccnc1` (stereo not shown) [nicotine, Nicotine], the “Time for the substance to reach the brain” value was “about seven”.
